From publication PMC3185571 (Viruses, 2010) come the findings set out here.

As a reminder, the IC50 is the concentration that gives 50% inhibition.

Assay [1] deals with neuraminidase of A/Washington/01/2007, A (H3N2) Seasonal, WT (Influenza A virus, UniProt A7UPN3). Description: biochemical.
Assay [2] has as its target neuraminidase of seasonal influenza A(H1N1) H275 wildtype virus isolates (Influenza A virus, UniProt A8C8J7). It counts as biochemical.
For assay [3], the target named is neuraminidase of Pandemic H1N1 virus isolates (Influenza A virus, UniProt C7FH46). It counts as biochemical, 2009 pandemic H1N1 influenza virus.
Assay [4] addresses neuraminidase of seasonal influenza B virus isolates (Influenza B virus, UniProt U5XBU0). In kind it is biochemical.
Assay [5] deals with neuraminidase of B/Memphis/20/1996, B Seasonal, WT (Influenza B virus, UniProt C7FPS7). In kind it is biochemical. The settings on record: read-out: Mean IC50 ± SD.
Assay [6] addresses neuraminidase of 2009 pandemic H1N1 H275 wildtype virus isolates (Influenza A virus, UniProt C3W5S3). It counts as biochemical, 2009 pandemic H1N1 influenza virus.
The target in assay [7] is neuraminidase of A/California/07/2009, H1N1 Pandemic, WT (Influenza A virus (A/California/07/2009(H1N1)), UniProt C7FH46). It counts as biochemical, 2009 pandemic H1N1 influenza virus. The settings on record: read-out: Mean IC50 ± SD.
Assay [8] has as its target neuraminidase of A/England/412/2008 (H1N1), H275H/Y mix. In kind it is biochemical, influenza A(H1N1) virus.
Assay [9] concerns the target neuraminidase of A/Washington/10/2008, A (H1N1) Seasonal, WT (Influenza A virus, UniProt G3LYQ1). In kind it is biochemical. The settings on record: read-out: Mean IC50 ± SD.
For assay [10], the target named is neuraminidase of seasonal influenza A(H3N2) virus isolates (Influenza A virus, UniProt X2GK54). In kind it is biochemical.
Assay [11] deals with neuraminidase of B/New Jersey/02/2009. It counts as biochemical, influenza B virus.
The test system of assay [12] is neuraminidase of seasonal influenza A(H1N1) viruses. In kind it is biochemical, influenza A(H1N1) virus.
Assay [13] deals with neuraminidase of B/Okinawa/10/2009. In kind it is biochemical, influenza B virus.
Where [14] appears, read: read-out: IC50 Statistical Cutoff (X0.75 + 3IQR).
[15] abbreviates: read-out: IC50 X0.75 (75th Percentile).

Like-named read-outs stand apart in the source and are kept apart here.

Regarding `CCC(CC)[C@H](NC(C)=O)[C@@H]1[C@H](O)[C@@H](C(=O)O)C[C@H]1N=C(N)N` [Peramivir, peramivir], the IC50 was 0.12 nM in assay [1] (read-out: Mean IC50 ± SD); 0.1 nM in [2] (read-out: IC50 Mean (±SD)); 0.1 nM in assay [2] (read-out: IC50 Median); 0.05 to 0.17 nM in [2] (read-out: IC50 Range); 0.28 nM in assay [2] (setting [14]); 0.13 nM in [2] (setting [15]). For the same molecule, the IC50 in assay [4] (read-out: IC50 Mean (±SD)) was 0.56 nM; in assay [4] (read-out: IC50 Median) it was 0.56 nM; in [4] (read-out: IC50 Range), 0.24 to 1.1 nM; in assay [4] (setting [14]), 1.37 nM; in assay [4] (setting [15]) it was 0.68 nM; in assay [5] it was 0.31 nM. The IC50 in assay [6] (read-out: IC50 Mean (±SD)) was 0.08 ± 0.04 nM; in [6] (read-out: IC50 Median), 0.07 nM; in [6] (read-out: IC50 Range), 0.03 to 0.35 nM; in [6] (setting [14]), 0.22 nM; in [6] (setting [15]), 0.1 nM; in assay [7], 0.06 nM. Further, the half-maximal inhibitory concentration (IC50) is 0.51 nM in assay [8]; 0.09 nM in assay [9]; 0.17 ± 0.1 nM in assay [10] (read-out: IC50 Mean (±SD)); 0.14 nM in assay [10] (read-out: IC50 Median); 0.05 to 0.94 nM in [10] (read-out: IC50 Range); 0.4 nM in assay [10] (setting [14]). Moreover, the IC50 in assay [10] (setting [15]) was 0.19 nM. The “susceptibility in NI assay” value in assay [3] and in assay [4] was “sensitive” each time.

Turning to `CC(=O)N[C@H]1[C@H]([C@H](O)[C@H](O)CO)OC(C(=O)O)=C[C@@H]1N=C(N)N` [Zanamivir, zanamivir], the results for the IC50 in assay [1] and in assay [7] were 0.47 nM and 0.26 nM, respectively. The “susceptibility in NI assay” value is reported as “reduced susceptibility” in [11]; “sensitive” in assay [12]; “reduced susceptibility” in assay [13]; “sensitive” in [3]; “sensitive” in assay [10].
